These results are taken from patent publication US6426357B1, “Antagonists of follicle stimulating hormone activity” (Affymax, Inc., priority 1999, dated 2002).

One may read the melting point as the temperature of the solid-liquid transition.

SMILES strings stand for the structures.

In the case of `NC(=O)CCN1C(=O)[C@@H](CC(=O)NCCc2ccc(Br)cc2)S[C@H]1c1ccc(C#Cc2ccccc2)s1` (relative stereo) [Example 13, 3-[(2S*,5R*)-5-{[2-(4-Bromo-phenyl)-ethylcarbamoyl]-methyl}-4-oxo-2-(5-phenylethynyl-thiophen-2-yl)-thiazolidin-3-yl]-propionamide], the melting point was 241 to 243 °C.
